Broadly, the Kd is the free concentration of one partner at which half of the binding sites on the other are occupied at equilibrium, for simple one-to-one binding.

Test [1] concerns the target Tyrosine-protein kinase Fyn (Homo sapiens, UniProt P06241). The experiment in a line: Binding affinity to Fyn (unknown origin) assessed as dissociation constant.
Test [2] concerns the target Small ribosomal subunit protein uS2 (Homo sapiens, UniProt P08865). The test can be described thus: Binding affinity to His-tagged Laminin receptor in human A549 cells assessed as dissociation constant by surface plasmon resonance assay. (In general: SPR reads the build-up and loss of mass on a sensor chip optically.)
Test [3] addresses T1, Latent membrane protein 1 (Human herpesvirus 4 (strain B95-8), UniProt P03230).
T1 sequence (P03230 whole entry): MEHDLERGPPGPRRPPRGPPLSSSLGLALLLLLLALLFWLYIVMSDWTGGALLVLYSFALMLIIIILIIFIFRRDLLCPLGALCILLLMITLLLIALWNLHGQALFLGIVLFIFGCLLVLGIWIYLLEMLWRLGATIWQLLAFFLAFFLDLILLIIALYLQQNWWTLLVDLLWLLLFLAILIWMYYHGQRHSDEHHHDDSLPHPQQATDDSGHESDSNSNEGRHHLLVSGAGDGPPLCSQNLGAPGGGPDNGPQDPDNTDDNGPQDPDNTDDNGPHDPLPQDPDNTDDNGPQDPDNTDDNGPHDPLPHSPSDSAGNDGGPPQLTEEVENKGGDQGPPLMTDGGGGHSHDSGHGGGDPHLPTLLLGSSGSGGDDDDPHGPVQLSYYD
The experiment in a line: Binding affinity to Epstein Barr virus LMP1 assessed as dissociation constant. Set-up: species or system human gammaherpesvirus 4.

Chain of Tyrosine-protein kinase Fyn (P06241 whole entry): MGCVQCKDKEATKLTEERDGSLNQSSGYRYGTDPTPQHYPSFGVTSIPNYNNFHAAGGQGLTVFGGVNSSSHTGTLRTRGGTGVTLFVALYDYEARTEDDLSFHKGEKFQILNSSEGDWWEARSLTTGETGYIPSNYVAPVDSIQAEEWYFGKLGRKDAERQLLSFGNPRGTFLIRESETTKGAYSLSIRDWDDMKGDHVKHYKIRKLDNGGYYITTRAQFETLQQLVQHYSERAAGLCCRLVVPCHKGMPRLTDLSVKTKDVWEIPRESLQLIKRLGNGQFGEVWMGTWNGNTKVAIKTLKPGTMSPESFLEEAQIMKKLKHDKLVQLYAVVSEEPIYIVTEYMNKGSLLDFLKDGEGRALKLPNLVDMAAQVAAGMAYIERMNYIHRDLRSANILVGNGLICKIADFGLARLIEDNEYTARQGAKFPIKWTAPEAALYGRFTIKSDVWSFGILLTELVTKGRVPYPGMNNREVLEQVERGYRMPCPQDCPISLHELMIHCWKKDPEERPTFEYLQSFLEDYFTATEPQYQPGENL

As to `O=C(O[C@@H]1Cc2c(O)cc(O)cc2O[C@@H]1c1cc(O)c(O)c(O)c1)c1cc(O)c(O)c(O)c1` [EPIGALOCATECHIN GALLATE], the results for the Kd in test [1], in test [2] and in test [3] were 367 nM, 39.9 nM and 360 nM, respectively.

The values above are taken from ChEMBL document CHEMBL5329203, “Target discovery of bioactive natural products with native-compound-coupled CNBr-activated Sepharose 4B beads (NCCB): Applications, mechanisms and outlooks” (Bioorg Med Chem, 2023).
